In US20250064941A1, “SIGLEC LIGANDS, CONJUGATES, AND METHODS OF USE THEREOF” (Osprey Biopharmaceuticals, Inc., priority 2023, published 2025):

Legend:
[1] = target: T1, mouse Siglec-2-Fc-Avi (CD22) (Mus musculus, UniProt P35329); experiment: SPR binding affinity to mouse CD22; conditions: steady-state analysis
T1 construct: made in house
T1 sequence (P35329 22-708 limits assumed): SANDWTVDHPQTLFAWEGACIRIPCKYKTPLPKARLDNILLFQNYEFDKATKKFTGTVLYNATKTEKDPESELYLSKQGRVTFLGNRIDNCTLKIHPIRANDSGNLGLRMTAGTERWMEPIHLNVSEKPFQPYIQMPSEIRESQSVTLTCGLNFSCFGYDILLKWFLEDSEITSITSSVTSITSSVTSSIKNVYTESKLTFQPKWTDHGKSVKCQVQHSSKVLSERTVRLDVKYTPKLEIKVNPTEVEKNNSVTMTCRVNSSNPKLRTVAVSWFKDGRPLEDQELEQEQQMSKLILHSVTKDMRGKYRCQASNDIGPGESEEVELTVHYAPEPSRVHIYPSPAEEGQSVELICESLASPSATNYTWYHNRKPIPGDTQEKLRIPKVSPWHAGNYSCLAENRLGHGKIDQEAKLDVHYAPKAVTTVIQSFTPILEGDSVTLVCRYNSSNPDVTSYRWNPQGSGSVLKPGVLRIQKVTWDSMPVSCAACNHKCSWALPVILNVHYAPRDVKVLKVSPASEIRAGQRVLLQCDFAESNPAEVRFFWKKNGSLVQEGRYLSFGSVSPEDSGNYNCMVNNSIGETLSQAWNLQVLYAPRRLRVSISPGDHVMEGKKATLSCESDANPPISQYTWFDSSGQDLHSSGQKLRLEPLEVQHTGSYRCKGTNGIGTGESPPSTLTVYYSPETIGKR
Outline: (§1)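 Biotinylated CD22 desialylated with SialoExo (4 h, 37° C) before capture on streptavidin chip. Running buffer 10 mM HEPES, 150 mM NaCl, 0.05% Tween-20, pH 7.5, 1% DMSO, with DMSO solvent correction; 120 s dissociation. Compound affinities from steady-state analysis.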

[2] = target: T2, human Siglec-2/CD22 protein (Homo sapiens, UniProt P20273); experiment: SPR binding affinity to human CD22; conditions: steady-state analysis
T2 construct: purchased Acro Biosystems SI2-H82E3
T2 sequence (P20273 20-847): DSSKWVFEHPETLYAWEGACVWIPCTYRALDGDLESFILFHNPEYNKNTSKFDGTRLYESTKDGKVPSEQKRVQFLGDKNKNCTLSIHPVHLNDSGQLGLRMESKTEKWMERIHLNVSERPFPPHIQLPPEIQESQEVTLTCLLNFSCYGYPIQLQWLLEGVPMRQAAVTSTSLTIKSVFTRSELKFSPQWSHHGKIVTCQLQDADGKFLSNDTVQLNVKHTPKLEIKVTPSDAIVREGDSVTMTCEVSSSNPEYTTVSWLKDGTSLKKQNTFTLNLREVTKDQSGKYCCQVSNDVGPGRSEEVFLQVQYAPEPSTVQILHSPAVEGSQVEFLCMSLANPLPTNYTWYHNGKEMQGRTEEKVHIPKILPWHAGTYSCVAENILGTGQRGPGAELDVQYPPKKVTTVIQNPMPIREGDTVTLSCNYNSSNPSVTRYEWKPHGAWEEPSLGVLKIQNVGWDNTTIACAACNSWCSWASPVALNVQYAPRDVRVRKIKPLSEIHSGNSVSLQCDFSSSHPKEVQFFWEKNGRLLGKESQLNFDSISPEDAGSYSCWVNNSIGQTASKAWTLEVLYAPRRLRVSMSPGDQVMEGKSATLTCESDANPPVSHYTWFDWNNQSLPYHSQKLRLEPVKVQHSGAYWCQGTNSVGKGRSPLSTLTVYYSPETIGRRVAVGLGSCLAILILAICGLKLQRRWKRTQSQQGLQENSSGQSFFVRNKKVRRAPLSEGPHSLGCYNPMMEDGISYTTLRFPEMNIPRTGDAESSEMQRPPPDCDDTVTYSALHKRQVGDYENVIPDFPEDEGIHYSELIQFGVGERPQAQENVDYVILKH
Outline: as §1

cynomolgus Siglec-2/CD22 = cynomolgus Siglec-2/CD22 (Macaca fascicularis, UniProt A0A2K5WCZ6); experiment: biochemical; format: binding; conditions: SPR, steady-state analysis; read-out: Affinity cyno CD22
Outline: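 SPR with desialylated (SialoExo, 4 h, 37° C.) cynomolgus CD22 amine-coupled to a CM5 chip. Running buffer 10 mM HEPES, 150 mM NaCl, 0.05% Tween-20, pH 7.5, 1% DMSO, with solvent correction; 120 s dissociation. Affinities from steady-state analysis.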

cynomolgus Siglec-2/CD22, sequence (A0A2K5WCZ6 entry or part of it): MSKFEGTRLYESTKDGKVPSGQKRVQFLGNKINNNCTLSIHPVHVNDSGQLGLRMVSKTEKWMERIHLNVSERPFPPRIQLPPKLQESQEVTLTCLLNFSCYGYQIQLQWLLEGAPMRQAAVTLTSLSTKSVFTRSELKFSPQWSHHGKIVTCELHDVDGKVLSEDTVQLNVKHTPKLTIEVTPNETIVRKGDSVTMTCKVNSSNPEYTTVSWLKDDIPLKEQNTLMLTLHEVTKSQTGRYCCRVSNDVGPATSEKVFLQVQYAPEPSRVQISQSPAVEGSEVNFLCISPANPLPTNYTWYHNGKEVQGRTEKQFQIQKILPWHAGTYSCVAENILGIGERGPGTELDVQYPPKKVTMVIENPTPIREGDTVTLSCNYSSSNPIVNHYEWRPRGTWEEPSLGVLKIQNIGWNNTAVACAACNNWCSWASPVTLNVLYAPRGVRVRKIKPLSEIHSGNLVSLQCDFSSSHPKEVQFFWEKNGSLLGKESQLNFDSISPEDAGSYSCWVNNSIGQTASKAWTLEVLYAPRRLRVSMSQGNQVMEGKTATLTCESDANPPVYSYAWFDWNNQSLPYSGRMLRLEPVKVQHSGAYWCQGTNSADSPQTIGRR

Row | SMILES | Kd [1] [nM] | Kd [2] [nM] | Kd (cynomolgus Siglec-2/CD22) [nM]
1 | C#CCCOc1ccc(CO[C@]2(C(=O)O)C[C@H](O)[C@@H](NC(=O)CO)[C@H]([C@H](O)[C@H](O)CNC(=O)Cc3ccccc3N3CCOCC3)O2)cc1 [Compound 138, (2R,4S,5R,6R)-2-((4-(but-3-yn-1-yloxy)benzyl)oxy)-6-((1R,2R)-1,2-dihydroxy-3-(2-(2-morpholinophenyl)acetamido)propyl)-4-hydroxy-5-(2-hydroxyacetamido)tetrahydro-2H-pyran-2-carboxylic acid] | 1000 to 10000 | 1000 to 10000 | < 1000
2 | C#CCOCCCCCCO[C@]1(C(=O)O)C[C@H](O)[C@@H](NC(=O)CO)[C@H]([C@H](O)[C@H](O)CNC(=O)Cc2ccc(-c3ccc4[nH]cc(C)c4c3)cc2)O1 [Compound 1, (2R,4S,5R,6R)-6-((1R,2R)-1,2-dihydroxy-3-(2-(4-(3-methyl-1H-indol-5-yl)phenyl)acetamido)propyl)-4-hydroxy-5-(2-hydroxyacetamido)-2-((6-(prop-2-yn-1-yloxy)hexyl)oxy)tetrahydro-2H-pyran-2-carboxylic acid] | < 1000 | < 1000 | < 1000
3 | C#CCCOc1ccc(CO[C@]2(C(=O)O)C[C@H](O)[C@@H](NC(=O)CO)[C@H]([C@H](O)[C@H](O)CNC(=O)Cc3cccc(Cl)c3)O2)cc1 [Compound 123, (2R,4S,5R,6R)-2-((4-(but-3-yn-1-yloxy)benzyl)oxy)-6-((1R,2R)-3-(2-(3-chlorophenyl)acetamido)-1,2-dihydroxypropyl)-4-hydroxy-5-(2-hydroxyacetamido)tetrahydro-2H-pyran-2-carboxylic acid] | 1000 to 10000 | < 1000 | < 1000
4 | C#CCCCCCCc1cn([C@]2(C(=O)O)C[C@H](O)[C@@H](NC(=O)CO)[C@H]([C@H](O)[C@H](O)CNC(=O)Cc3ccc(Cl)cc3)O2)nn1 [Compound 119, (2R,4S,5R,6R)-6-((1R,2R)-3-(2-(4-chlorophenyl)acetamido)-1,2-dihydroxypropyl)-4-hydroxy-5-(2-hydroxyacetamido)-2-(4-(oct-7-yn-1-yl)-1H-1,2,3-triazol-1-yl)tetrahydro-2H-pyran-2-carboxylic acid] | 1000 to 10000 | 1000 to 10000 | 1000 to 10000
5 | C#CCCOc1ccc(CO[C@]2(C(=O)O)C[C@H](O)[C@@H](NC(=O)CO)[C@H]([C@H](O)[C@H](O)CNC(=O)Cc3ccc(O)c(Cl)c3)O2)cc1 [Compound 136, (2R,4S,5R,6R)-2-((4-(but-3-yn-1-yloxy)benzyl)oxy)-6-((1R,2R)-3-(2-(3-chloro-4-hydroxyphenyl)acetamido)-1,2-dihydroxypropyl)-4-hydroxy-5-(2-hydroxyacetamido)tetrahydro-2H-pyran-2-carboxylic acid] | 1000 to 10000 | < 1000 | < 1000
6 | CC(=O)NCCOCCOCCOCCOCCC(=O)NCCCCCCO[C@]1(C(=O)O)C[C@H](O)[C@@H](NC(=O)CO)[C@H]([C@H](O)[C@H](O)CNC(=O)Cc2ccc(-c3ccccc3)cc2)O1 [Compound 219, (2R,4S,5R,6R)-6-((1R,2R)-3-(2-([1,1′-biphenyl]-4-yl)acetamido)-1,2-dihydroxypropyl)-2-((2,18-dioxo-6,9,12,15-tetraoxa-3,19-diazapentacosan-25-yl)oxy)-4-hydroxy-5-(2-hydroxyacetamido)tetrahydro-2H-pyran-2-carboxylic acid] | < 1000 | < 1000 | < 1000
7 | C#CCNc1c(NCCCCCCO[C@]2(C(=O)O)C[C@H](O)[C@@H](NC(=O)CO)[C@H]([C@H](O)[C@H](O)CNC(=O)Cc3ccc(C(F)F)cc3)O2)c(=O)c1=O [Compound 220, (2R,4S,5R,6R)-6-((1R,2R)-3-(2-(4-(difluoromethyl)phenyl)acetamido)-1,2-dihydroxypropyl)-2-((6-((3,4-dioxo-2-(prop-2-yn-1-ylamino)cyclobut-1-en-1-yl)amino)hexyl)oxy)-4-hydroxy-5-(2-hydroxyacetamido)tetrahydro-2H-pyran-2-carboxylic acid] | < 1000 | < 1000 | < 1000
8 | C#CCOCCCCCCO[C@]1(C(=O)O)C[C@H](O)[C@@H](NC(=O)NCC2CC2)[C@H]([C@H](O)[C@H](O)CNC(=O)Cc2ccc(Cl)cc2)O1 [Compound 94, (2R,4S,5R,6R)-6-((1R,2R)-3-(2-(4-chlorophenyl)acetamido)-1,2-dihydroxypropyl)-5-(3-(cyclopropylmethyl)ureido)-4-hydroxy-2-((6-(prop-2-yn-1-yloxy)hexyl)oxy)tetrahydro-2H-pyran-2-carboxylic acid] | 1000 to 10000 | 1000 to 10000 | 1000 to 10000
9 | C#CCOCCCCCCO[C@]1(C(=O)O)C[C@H](O)[C@@H](NC(=O)CO)[C@H]([C@H](O)[C@H](O)CNC(=O)Cc2ccc(C3CC3)cc2)O1 [Compound 161, (2R,4S,5R,6R)-6-((1R,2R)-3-(2-(4-cyclopropylphenyl)acetamido)-1,2-dihydroxypropyl)-4-hydroxy-5-(2-hydroxyacetamido)-2-((6-(prop-2-yn-1-yloxy)hexyl)oxy)tetrahydro-2H-pyran-2-carboxylic acid] | < 1000 | < 1000 | < 1000
10 | C#CCOCCNC(=O)CCCCCCO[C@]1(C(=O)O)C[C@H](O)[C@@H](NC(=O)CO)[C@H]([C@H](O)[C@H](O)CNC(=O)Cc2ccc(Cl)c(F)c2)O1 [Cpd. 214, (2R,4S,5R,6R)-6-((1R,2R)-3-(2-(4-chloro-3-fluorophenyl)acetamido)-1,2-dihydroxypropyl)-4-hydroxy-5-(2-hydroxyacetamido)-2-((7-oxo-7-((2-(prop-2-yn-1-yloxy)ethyl)amino)heptyl)oxy)tetrahydro-2H-pyran-2-carboxylic acid] | < 1000 | < 1000 | < 1000
11 | C#CCOCCCCCCO[C@]1(C(=O)O)C[C@H](O)[C@@H](NC(=O)C(O)CO)[C@H]([C@H](O)[C@H](O)CNC(=O)Cc2ccc(Cl)cc2)O1 (stereo partly drawn) [Compound 210, (2R,4S,5R,6R)-6-((1R,2R)-3-(2-(4-chlorophenyl)acetamido)-1,2-dihydroxypropyl)-5-(2,3-dihydroxypropanamido)-4-hydroxy-2-((6-(prop-2-yn-1-yloxy)hexyl)oxy)tetrahydro-2H-pyran-2-carboxylic acid] | < 1000 | 1000 to 10000 | < 1000
12 | C#CCOc1ccc(CO[C@]2(C(=O)O)C[C@H](O)[C@@H](NC(=O)CO)[C@H]([C@H](O)[C@H](O)CNC(=O)Cc3ccc(-c4ccc(O)cc4)cc3Cl)O2)cc1 [Compound 52, (2R,4S,5R,6R)-6-((1R,2R)-3-(2-(3-chloro-4′-hydroxy-[1,1′-biphenyl]-4-yl)acetamido)-1,2-dihydroxypropyl)-4-hydroxy-5-(2-hydroxyacetamido)-2-((4-(prop-2-yn-1-yloxy)benzyl)oxy)tetrahydro-2H-pyran-2-carboxylic acid] | < 1000 | < 1000 | 1000 to 10000
13 | C#CCOCCCCCCO[C@]1(C(=O)O)C[C@H](O)[C@@H](NCC(=O)N(C)C)[C@H]([C@H](O)[C@H](O)CNC(=O)Cc2ccc(Cl)cc2)O1 [Compound 180, (2R,4S,5R,6R)-6-((1R,2R)-3-(2-(4-chlorophenyl)acetamido)-1,2-dihydroxypropyl)-5-((2-(dimethylamino)-2-oxoethyl)amino)-4-hydroxy-2-((6-(prop-2-yn-1-yloxy)hexyl)oxy)tetrahydro-2H-pyran-2-carboxylic acid] | 1000 to 10000 | > 10000 | 1000 to 10000
